In the assay the test system is JFH 5a-GFP. Briefly: Real time assessment of anti-viral activity in individual JFH 5a-GFP infected Huh 7.5.1 cells (time-lapse confocal GFP fluorescence). The following applies: 1000 IU/ml IFN-α, monitored every 12 hours up to 60 hours, FIGS. 13-16. It is filed as cell-based, hepatitis C virus. Here is the method: Huh 7.5.1 cells were infected with culture supernatant obtained from the transformant transfected with JFH 5a-GFP RNA (the transformant was transformed with the introduction of JFH 5a-GFP RNA via electroporation into Huh 7.5.1 cells, in Example 2-1).
After treating or mock-treating (i.e., no IFN-α treated) the transformant with IFN-α, GFP fluorescence was monitored every 12 hours up to 60 hours by using time-lapse confocal microscopy (Zeiss LSM 5 Live). For time-lapse imaging, coverslips were mounted onto the microscope stage, which was equipped with a temperature- and gas-controlled chamber (Chamide IC, Live Cell Instrument, Korea).
In addition, quantitative analyses of the fluorescence images of 8 cells were made by using MetaMorph software. The grouping of the figures was made depending on whether the cell was treated with IFN-α.
FIGS. 10 and 14 are graphs showing changing fluorescence levels in 8 transformants, in absolute values. FIGS. 11 and 15 are graphs showing changing fluorescence levels over time in 8 transformants, in relative values against the starting value, i.e., the value given to the transformants with no IFN-α treated.

For Interferon-alpha [IFN-α], the “5a-GFP fluorescence intensities over time in 8 transformants” value was “seven among eight transformants showed decreasing fluorescence intensities over time”.
